These results are taken from patent US9238039B2, “Pyrazolo[1,5-A]pyrimidines for antiviral treatment” (Gilead Sciences, Inc., priority 2010, dated 2016).

SMILES strings stand for the structures.

The test system of the assay is RSV strain A2. As to the kind of experiment: RSV antiviral cytoprotection assay in Hep2 cells (96-well and 384-well format, Cell TiterGlo read-out). The assay is classed as cell-based, Respiratory Syncytial Virus (RSV). Conditions: human respiratory syncytial virus; for inhibition at 0.5 µM: HEp-2, 0.5 uM; for inhibition at 0.5 µM / inhibition at 1 µM: RSV-induced cytopathic effect in Hep2 cells, calculated from fitted dose response curve, normalized to 0% and 100%; for EC50: HEp-2, RSV-induced cytopathic effects, Hep2 cells, class symbols; for inhibition at 1 µM: HEp-2, 1 uM.

Turning to `CCc1ccc(NS(C)(=O)=O)c(C(=O)N2CCCC[C@H]2c2cc3[nH]c(C)c(C)c(=O)n3n2)c1` [Compound 116], the inhibition at 0.5 µM is 98% and the EC50 was in the range of 0.1 to 100 nM.

As to `Cc1cn2nc([C@@H]3CCCCN3C(=O)c3cc(Cl)ccc3NS(C)(=O)=O)cc2nc1N1CC(OP(=O)(O)O)C1` [Compound 244], the inhibition at 0.5 µM was 88% and the 50% effective concentration (EC50) lay in the range of 0.1 to 100 nM.

For the compound `Cc1cc(C2CC2)nc2cc([C@@H]3CCCCN3C(=O)c3cc(F)c(F)cc3NS(C)(=O)=O)nn12` [Compound 117], the inhibition at 0.5 µM was 99% and the EC50 lay in the range of 0.1 to 100 nM.

For the compound `Cc1cn2nc([C@@H]3CCCCN3C(=O)c3cc(C(C)C)nn3C)cc2nc1N1CC[C@H](N)C1` [Compound 328], the inhibition at 0.5 µM is 99% and the EC50 is 0.1 to 100 nM.

Take `CNc1ccccc1C(=O)N1CCCC[C@H]1c1cc2[nH]c(C)c(C)c(=O)n2n1` [Compound 7]: the inhibition at 0.5 µM is 93%, the inhibition at 1 µM was 98% and the EC50 is 0.1 to 100 nM.

Consider `Cc1ccnc(C(=O)N2CCCC[C@H]2c2cc3nc(N4CC[C@H](N)C4)c(C)cn3n2)c1` [Compound 272], for which the inhibition at 0.5 µM was 100% and the EC50 lay in the range of 0.1 to 100 nM.

With `Cc1cn2nc([C@@H]3CCCCN3C(=O)c3c(Cl)c(C)nn3C)cc2nc1N1CC[C@H](N)C1` [Compound 348], the inhibition at 0.5 µM was 99% and the EC50 lay in the range of 0.1 to 100 nM.

`Cc1cn2nc([C@@H]3CCCCN3C(=O)c3cscn3)cc2nc1N1CC[C@H](N)C1` [Compound 270]: the inhibition at 0.5 µM was 82% and the EC50 fell in the range of 101 to 1000 nM.

`Cc1c[nH]c2cc([C@@H]3CCCCN3C(=O)c3cc(F)ccc3NS(C)(=O)=O)nn2c1=O` [Compound 17]: the inhibition at 0.5 µM was 75%, the inhibition at 1 µM was 97% and the concentration for a half-maximal effect (EC50) lay in the range of 101 to 1000 nM.

Regarding `Cc1cn2nc([C@@H]3CCCCN3C(=O)c3cc(Cl)ccc3NS(C)(=O)=O)cc2nc1N1CC[C@H](N)C1` [Compound 202], the inhibition at 0.5 µM was 100% and the EC50 fell in the range of 0.1 to 100 nM.

Regarding `Cc1cn2nc([C@@H]3CCCCN3C(=O)c3ccc4[nH]c(C)c(C)c4c3)cc2nc1N1CC[C@H](N)C1` [Compound 386], the inhibition at 0.5 µM is 97% and the EC50 lay in the range of 0.1 to 100 nM.

Turning to `Cc1ccc(NS(C)(=O)=O)c(C(=O)N2CCCC[C@H]2c2cc3nc(C)cc(N(C)C)n3n2)c1` [Compound 39], the inhibition at 0.5 µM is 100% and the EC50 was in the range of 0.1 to 100 nM.

For the compound `CS(=O)(=O)Nc1ccc(Cl)cc1C(=O)N1CCCC[C@H]1c1cc2nc(N3CCC3)cc(N3CC[C@H](N)C3)n2n1` [Compound 227], the inhibition at 0.5 µM is 100% and the 50% effective concentration (EC50) fell in the range of 0.1 to 100 nM.

For the compound `Cc1[nH]c2cc([C@@H]3CCCCN3C(=O)c3ccccc3NC(=O)OC(C)(C)C)nn2c(=O)c1C` [Compound 2], the inhibition at 0.5 µM is 36%, the inhibition at 1 µM is 46% and the concentration giving a half-maximal response (EC50) was in the range of 101 to 1000 nM.

`Cc1cn2nc([C@@H]3CCCCN3C(=O)c3cc(Cl)ncc3Cl)cc2nc1N1CC[C@H](N)C1` [Compound 395]: the inhibition at 0.5 µM was 100% and the concentration giving a half-maximal response (EC50) lay in the range of 0.1 to 100 nM.

In the case of `CS(=O)(=O)Nc1ccc(Cl)cc1C(=O)N1CCCC[C@H]1c1cc2nc(N3CCC3)cc(N3CC(O)C3)n2n1` [Compound 56], the inhibition at 0.5 µM is 100% and the EC50 lay within 0.1 to 100 nM.

Turning to `Cc1ccc(NS(C)(=O)=O)c(C(=O)N2CCCC[C@H]2c2cc3nc(C)c(C)c(N4CCCC4)n3n2)c1` [Compound 98], the inhibition at 0.5 µM is 98% and the half-maximal effective concentration (EC50) lay in the range of 0.1 to 100 nM.

In the case of `CS(=O)(=O)Nc1ccc(Cl)cc1C(=O)N1CCCC[C@H]1c1cc2nc(N3CCC3)ccn2n1` [Compound 43], the inhibition at 0.5 µM was 100% and the concentration giving a half-maximal response (EC50) lay within 0.1 to 100 nM.

For the compound `Cc1cn2nc([C@@H]3CCCCN3C(=O)c3cc(O)ccc3Cl)cc2nc1N1CC[C@H](N)C1` [Compound 339], the inhibition at 0.5 µM is 99% and the EC50 fell in the range of 0.1 to 100 nM.

`Cc1cn2nc([C@@H]3CCCCN3C(=O)c3cnccn3)cc2nc1N1CC[C@H](N)C1` [Compound 260]: the inhibition at 0.5 µM was 99% and the EC50 is 0.1 to 100 nM.

Consider `Cc1ccc(NS(C)(=O)=O)c(C(=O)N2CCCC[C@H]2c2cc3nc(C4CC4)cc(N4CCOCC4)n3n2)c1` [Compound 62], for which the inhibition at 0.5 µM was 100% and the EC50 fell in the range of 0.1 to 100 nM.

Take `CS(=O)(=O)Nc1ccc(Cl)cc1C(=O)N1CCCC[C@H]1c1cc2nc(NCCO)cc(N3CCOCC3)n2n1` [Compound 247]: the inhibition at 0.5 µM is 94% and the EC50 fell in the range of 0.1 to 100 nM.

As to `CS(=O)(=O)Nc1ccc(Cl)cc1C(=O)N1CCCC[C@H]1c1cc2nc(N3CCC3)cc(N3CCN(CC(F)(F)F)CC3)n2n1` [Compound 84], the inhibition at 0.5 µM is 100% and the EC50 is 0.1 to 100 nM.

As to `CS(=O)(=O)Nc1ccc(Cl)cc1C(=O)N1CCCC[C@H]1c1cc2nc(N3CCC3)cc(N3CC(N)C(C(=O)N4CCC4)C3)n2n1` (stereo partly drawn) [Compound 164], the inhibition at 0.5 µM was 100% and the EC50 lay within 0.1 to 100 nM.

For the compound `Cc1cn2nc([C@@H]3CCCCN3C(=O)c3ccccc3C(F)(F)F)cc2nc1N1CC[C@H](N)C1` [Compound 387], the inhibition at 0.5 µM is 77% and the EC50 lay within 101 to 1000 nM.

Regarding `Cc1cn2nc([C@@H]3CCCCN3C(=O)c3cc(Cl)ccc3NS(C)(=O)=O)cc2nc1N1CC(Oc2ccccn2)C1` [Compound 212], the inhibition at 0.5 µM was 88% and the EC50 was 101 to 1000 nM.

With `Cc1cn2nc([C@@H]3CCCCN3C(=O)c3cc(Cl)ccc3NS(C)(=O)=O)cc2nc1N1CCC[C@H]1C#N` [Compound 200], the inhibition at 0.5 µM is 95% and the EC50 lay within 0.1 to 100 nM.

For `C#Cc1cccc(C(=O)N2CCCC[C@H]2c2cc3nc(N4CC[C@H](N)C4)c(C)cn3n2)c1` [Compound 289], the inhibition at 0.5 µM was 100% and the EC50 fell in the range of 0.1 to 100 nM.

As to `Cc1cn2nc([C@@H]3CCCCN3C(=O)c3cc(-c4ccccc4)ccn3)cc2nc1N1CC[C@H](N)C1` [Compound 410], the EC50 is 1000 to 10000 nM.

Take `CCn1nc(C(=O)N2CCCC[C@H]2c2cc3nc(N4CC[C@H](N)C4)c(C)cn3n2)cc1C` [Compound 301]: the inhibition at 0.5 µM is 100% and the half-maximal effective concentration (EC50) was 0.1 to 100 nM.

Regarding `Cc1cn2nc([C@@H]3CCCCN3C(=O)c3cnn(C4CCCC4)c3)cc2nc1N1CC[C@H](N)C1` [Compound 366], the inhibition at 0.5 µM was 100% and the EC50 was in the range of 0.1 to 100 nM.

Regarding `COc1c(C)cccc1C(=O)N1CCCC[C@H]1c1cc2nc(N3CC[C@H](N)C3)c(C)cn2n1` [Compound 320], the inhibition at 0.5 µM was 100% and the EC50 fell in the range of 0.1 to 100 nM.

On to `CS(=O)(=O)Nc1ccc(Cl)cc1C(=O)N1CCCC[C@H]1c1cc2nc(N3CC(O)C3)cc(N3CC(N)C3)n2n1` [Compound 130], for which the inhibition at 0.5 µM was 100% and the EC50 lay within 0.1 to 100 nM.

For the compound `CS(=O)(=O)Nc1ccc(Cl)cc1C(=O)N1CCCC[C@H]1c1cc2nc(N3CC[C@@H](O)C3)cc(N3CC(N)C3)n2n1` [Compound 132], the inhibition at 0.5 µM was 97% and the EC50 was in the range of 0.1 to 100 nM.

On to `Cc1cn2nc([C@@H]3CCCCN3C(=O)c3cccc(Cl)c3C)cc2nc1N1CC[C@H](N)C1` [Compound 331], for which the inhibition at 0.5 µM is 99% and the EC50 was in the range of 0.1 to 100 nM.
